Data taken from patent US10149478B2, “Biologically active formulation” (Endura S.P.A., priority 2005, dated 2018).

System: Bemisia tabaci (whitely) biotype B
Experiment: Leaf dip bioassay, mortality assay for insecticide compounds (Example 20)
Type: in vivo
Conditions: for LC50% a.i. (*): quantity of pure insecticide achieving 50% mortality; for resistance factor: relative to non-resistant insects
Description: The “leaf dip bioassay” used for testing the activity of insecticides against Bemisia tabaci (whitely) biotype B, was similar to that described by Cahill, M et al, Bull. Entomol. Res. 85, 181-187, 1995.
Cotton plants (Gossypium hirsutum L.) were grown without any exposure to the insecticides. The leaves were cut up into disc shapes and immersed in an aqueous solution of insecticide containing 0.01% of Agral then left to dry at 25° C.
Control leaves were immersed in Agral and distilled water only.
About 20 adult insects were placed onto the small discs of treated cotton leaf.
The insects were allowed to feed and maximum mortality was evaluated at 24 and 48 hours.
LC50% a.i. and LC99% a.i indicate the quantity of active ingredient (i.e pure insecticide) able to achieve mortality for 50% and 99% of the insects tested.

[1] = adults on treated cotton leaf discs, maximum mortality evaluated at 24 and 48 hours

C/C(=N\C#N)N(C)Cc1ccc(Cl)nc1 [Acetamiprid]
LC50% a.i. (*) [1]: 0.00038 ppm | LC99% a.i. (*) (quantity of pure insecticide achieving 99% mortality, adults on treated cotton leaf discs, maximum mortality evaluated at 24 and 48 hours): 0.098 ppm | resistance factor: 21 times

O=[N+]([O-])NC1=NCCN1Cc1ccc(Cl)nc1 [Imidacloprid]
LC50% a.i. (*) [1]: 4.7 ppm | resistance factor: 2336 times
